In US6531512B1, “Method of treating cancer in patients having a deficiency in p53 tumor suppressor gene” (Health Research Inc., priority 1998, dated 2003):

Assays:
[1] = system: S-adenosylmethionine decarboxylase (SAMDC); assay: Polyamine enzyme activity in treated melanoma cells: SAMDC; format: cell-based, human; settings: MALME-3M (wt-p53), 10 μM, Table 2 (24 hours treatment)
Procedure: (§1) MALME-3M human melanoma cells were cultured as described in Example 1 and treated with 10 μM DENSPM or 10 μM spermine (SPM) as described in Example 4. SK-MEL-28 cells were also cultured as described in Example 1 and treated with 10 μM DENSPM as describe in Example 4. Untreated cells were used as a control.
(§2) After treatment with DENSPM or spermine, biochemical parameters including polyamine enzymes activity, polyamine pools and analog accumulation were monitored as described by Kramer et al, J. Biol. Chem., 270:2124-32 (1995) and Kramer et al., Cancer Res., 57:5521-5527 (1997). Polyamine enzyme activity was monitored for ornithine […] (ODC); S-adenosylmethionine decarboxylase (SAMDC); and spermidine/spermine N^1-acetyltransferase (SSAT). Polyamine pools was monitored for putrescine (Put); spermidine (Spd); and spermine (Spm).

[2] = system: MALME-3M human melanoma cells; assay: Cell growth of MALME-3M cells (Coulter Counter); format: cell-based; settings: 10 μM
Procedure: (§3) MALME-3M human melanoma cells containing wt-p53 (American Tissue Type Culture Collection, Bethesda, Md.) and human SK-MEL-28 cells containing mt-p53 (American Tissue Type Culture Collection, Bethesda, Md.) were cultured as a monolayer in RPMI 1640 medium containing 10% Nu-Serum (Collaborative Research Products, Bedford, Mass.), 1 mM aminoguanidine, penicillin (50 units/ml) and streptomycin (50 μg/ml) as described by Kramer et al, J. Biol. Chem., 270:2124-32 (1995) and Kramer et al., Cancer Res., 57:5521-5527 (1997).
(§4) MALME-3M cells were cultured as described in Example 1. The cells were seeded by adding 1×10^5 cells to a T-25 vented cell culture flask. After 24 hours, the asynchronous cell cultures were treated with 10 μM N^1, N^11-diethylnorspermine (DENSPM) prepared by dissolving DENSPM in distilled water and sterilizing the solution by filtration through a 0.22 micron Millipore membrane. The cells were treated by continuous exposure to DENSPM for 6 days (i.e., the polyamine was added to the cell culture at T=0 and the culture was incubated for the desired amount of time). The number of viable MALME-3M cells were monitored electronically using a Model ZM Coulter Counter (Coulter Electronics, Hialeah, Fla.). Untreated MALME-3M cell cultures were used as controls.
(§5) MALME-3M human melanoma cells were cultured as described in Example 1 and treated continuously with 10 μM DENSPM or 10 μM spermine (SPM) for 48 hours. SK-MEL-28 cells were also cultured as described in Example 1 and treated with 10 μM DENSPM for 24 hours. Untreated cells were used as a control.
(§6) The effect of DENSPM and spermine on cell growth was monitored using a Coulter Counter (see Example 2). The effect on cell cycle was monitored by flow cytometry as described in Example 3.

[3] = system: MALME-3M human melanoma cells; assay: Polyamine pools in MALME-3M cells; format: cell-based; settings: MALME-3M (wt-p53), 10 μM, Table 2 (24 hours treatment)
Procedure: as §1, §2

[4] = system: MALME-3M human melanoma cells; assay: Cell cycle distribution of MALME-3M cells by flow cytometry; format: cell-based; settings: MALME-3M (wt-p53), asynchronous, 10 μM, 48 hours
Procedure: MALME-3M cells were cultured as described in Example 1 and treated with 10 μM DENSPM as described in Example 2. Cell cycle arrest was monitored using a FACScan flow cytometry unit (Becton Dickinson, San Jose, Calif.) according to the method of Krishan (1975) J. Cell Biol. 66:[…]. Untreated MALME-3M cell cultures were used as controls.
Cell cycle arrest of serum synchronized MALME-3M cells was also monitored using flow cytometry. MALME-3M cells were synchronized in G0/G1 by replacing cell culture media containing 10% NuSerum (see Example 1) with media lacking NuSerum and incubating the cultures for 120 hours. The synchronized cells were released by the addition of 10% NuSerum (control culture) or 10% NuSerum plus 10 μM DENSPM. The cells were then grown continuously in the presence of serum (control) or DENSPM for up to 96 hours. The untreated cells (control) re-established an asynchronous profile (i.e., progressed through the cell cycle) by 60 hours.
as §6

[5] = system: ornithine decarboxylate (ODC); assay: Polyamine enzyme activity in treated melanoma cells: ODC; format: cell-based, human; settings: for Enzyme Activities, ODC: SK-MEL-28 cells, 24 hours, Table 4
Procedure: as §1, §2
(§7) Enzyme activity and polyamine pools were measured as described in Example 5.

[6] = system: spermidine/spermine N^1-acetyltransferase (SSAT); assay: Polyamine enzyme activity in treated melanoma cells: SSAT induction; format: cell-based, human; settings: for Enzyme Activities, SSAT: Table 4
Procedure: as §1, §2, §7

[7] = system: SK-MEL-28 human melanoma cells; assay: Cell growth / apoptotic response of SK-MEL-28 cells (Coulter Counter, growth kinetics); format: cell-based; settings: SK-MEL-28 cells; for % Control Growth: 24 hours, Table 4; for cell growth and/or apoptosis response: growth kinetic analysis
Procedure: as §3, §4, §5
The effect of DENSPM and spermine on cell growth was monitored using a Coulter Counter (see Example 2). The effect on cell cycle was monitored by flow cytometry as described in Example 3. […]

[8] = system: SK-MEL-28 human melanoma cells; assay: Polyamine pools and analog accumulation in SK-MEL-28 cells; format: cell-based; settings: SK-MEL-28 cells, 24 hours; for Analog (intracellular accumulation) / Polyamine Pools, Put / Polyamine Pools, Spd / Polyamine Pools, Spm: Table 4
Procedure: as §1, §2, §7

[9] = MALME-3M (wt-p53), 10 μM, Table 2 (24 hours treatment)

| Structure (SMILES) | % Control Growth [7] | cell growth and/or apoptosis response [7] | Analog (intracellular accumulation) [8] | Polyamine Pools, Put [8] | Polyamine Pools, Spd [8] | Polyamine Pools, Spm [8] | Enzyme Activities, ODC [5] | SSAT activity ([6]; SK-MEL-28 cells, 24 hours) | Enzyme Activities, SSAT ([6]; SK-MEL-28 cells, 24 hours) | further results |
| --- | --- | --- | --- | --- | --- | --- | --- | --- | --- | --- |
| NCCCNCCCCNCCCN [SPM, spermine, reference compound] |  |  |  |  |  |  |  |  |  | SAMDC activity [1]: 20 pmol/hr/mg protein; % Control Growth ([2]; MALME-3M (wt-p53), 48 hours): 96%; % Growth Control ([2]; MALME-3M (wt-p53), Table 2 (24 hours treatment)): 97%; effect on growth or cell cycle compared to control cells ([2]; MALME-3M, 48 hours): no effect; Polyamine Pools, Put [3]: <5 pmol/10^6 cells; Polyamine Pools, Spd [3]: 470 pmol/10^6 cells; Polyamine Pools, Spm [3]: 2430 pmol/10^6 cells; % Total Cells at 48 hours, G1 [4]: 67%; % Total Cells at 48 hours, G2/M [4]: 10%; % Total Cells at 48 hours, S [4]: 23%; ODC activity [5, 9]: 175 pmol/hr/mg protein; SSAT activity [6, 9]: 210 pmol/min/mg |
| CCNCCCNCCCCNCCCNCC [DE-343, N^1,N^12-diethylspermine] | 59% | apoptotic response similar to that by DENSPM with a 24 hour delay | 5830 pmol/10^6 cells | 60 pmol/10^6 cells | 60 pmol/10^6 cells | 200 pmol/10^6 cells | 23 pmol/hr/mg protein | 9,470 pmol/min/mg | 9470 pmol/min/mg protein | SSAT activity relative to DE-444 (times higher) ([6]; SK-MEL-28 cells): 10 times; SSAT activity relative to DENSPM (fold less) ([6]; SK-MEL-28 cells): about 3 fold |
| CCNCCCCNCCCCNCCCNCC [DE-443, 3,7,12,17-tetraazanonadecane] | 77% | apoptotic response with a 48 hour delay | 5610 pmol/10^6 cells | 20 pmol/10^6 cells | 70 pmol/10^6 cells | 500 pmol/10^6 cells | 32 pmol/hr/mg protein | 5,215 pmol/min/mg | 5215 pmol/min/mg protein |  |
| CCNCCCCNCCCCNCCCCNCC [DE-444, N^1,N^14-diethylhomospermine] | 97% | cytostatic response | 5950 pmol/10^6 cells | 20 pmol/10^6 cells | 120 pmol/10^6 cells | 1015 pmol/10^6 cells | 14 pmol/hr/mg protein | 930 pmol/min/mg | 930 pmol/min/mg protein | decrease in spermine pools [8]: 65% |
